Kd data for eleven compounds are collected here from ChEMBL document CHEMBL3991601, “The target landscape of clinical kinase drugs” (Science, 2017).

Broadly, the Kd is the equilibrium constant for the complex coming apart.

Active and inactive are the calls of the source. Cut-off read from the data, not from the text of the source, for most assays here: actives have a measured Kd and inactives only a lower limit. Some results are limits rather than exact numbers.

For test [1], the target named is Mitogen-activated protein kinase 9 (Homo sapiens, UniProt P45984).
Test [2] deals with Serine/threonine-protein kinase N2 (Homo sapiens, UniProt Q16513).
In test [3] the target is T1, Inhibitor of nuclear factor kappa-B kinase subunit epsilon (Homo sapiens, UniProt Q14164).
T1 sequence (Q14164 whole entry): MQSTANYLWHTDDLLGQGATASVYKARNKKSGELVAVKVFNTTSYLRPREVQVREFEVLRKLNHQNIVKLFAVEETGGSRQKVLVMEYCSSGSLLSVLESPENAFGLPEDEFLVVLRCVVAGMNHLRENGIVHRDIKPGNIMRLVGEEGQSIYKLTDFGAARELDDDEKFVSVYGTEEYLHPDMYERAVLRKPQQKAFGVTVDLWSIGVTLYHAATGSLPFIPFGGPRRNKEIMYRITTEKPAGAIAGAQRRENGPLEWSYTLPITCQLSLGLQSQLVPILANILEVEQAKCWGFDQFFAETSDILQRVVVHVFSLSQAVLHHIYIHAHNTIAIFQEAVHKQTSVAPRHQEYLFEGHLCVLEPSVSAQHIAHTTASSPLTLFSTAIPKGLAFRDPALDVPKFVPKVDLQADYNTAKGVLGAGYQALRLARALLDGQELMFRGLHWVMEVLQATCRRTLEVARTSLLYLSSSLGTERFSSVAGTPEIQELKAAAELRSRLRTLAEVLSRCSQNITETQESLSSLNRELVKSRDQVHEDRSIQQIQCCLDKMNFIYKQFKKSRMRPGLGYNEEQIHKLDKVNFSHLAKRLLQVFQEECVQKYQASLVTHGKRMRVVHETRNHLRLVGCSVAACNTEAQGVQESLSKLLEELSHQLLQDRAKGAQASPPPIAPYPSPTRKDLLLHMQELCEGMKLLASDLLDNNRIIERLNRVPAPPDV

For test [4], the target named is T2, Peroxisomal acyl-coenzyme A oxidase 1 (Homo sapiens, UniProt Q15067).
T2 sequence (Q15067 whole entry): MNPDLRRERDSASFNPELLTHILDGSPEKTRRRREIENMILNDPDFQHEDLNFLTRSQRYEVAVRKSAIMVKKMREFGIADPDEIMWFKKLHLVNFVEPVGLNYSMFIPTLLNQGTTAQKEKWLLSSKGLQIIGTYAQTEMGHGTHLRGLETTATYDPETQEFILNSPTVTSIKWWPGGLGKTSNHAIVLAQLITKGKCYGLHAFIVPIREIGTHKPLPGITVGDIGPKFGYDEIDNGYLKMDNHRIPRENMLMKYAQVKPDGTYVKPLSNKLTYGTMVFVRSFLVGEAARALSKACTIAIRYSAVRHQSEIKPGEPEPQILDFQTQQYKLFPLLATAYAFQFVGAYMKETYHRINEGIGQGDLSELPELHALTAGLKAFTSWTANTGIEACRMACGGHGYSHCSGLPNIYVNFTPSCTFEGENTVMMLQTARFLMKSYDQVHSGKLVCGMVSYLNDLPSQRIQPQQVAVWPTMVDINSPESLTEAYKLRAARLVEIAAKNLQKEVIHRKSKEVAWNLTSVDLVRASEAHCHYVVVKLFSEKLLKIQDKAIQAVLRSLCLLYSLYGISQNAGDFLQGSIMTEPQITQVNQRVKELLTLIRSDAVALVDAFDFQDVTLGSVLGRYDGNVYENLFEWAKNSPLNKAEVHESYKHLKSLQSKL

A further test addresses T3, Activin receptor type-1B (Homo sapiens, UniProt P36896).
T3 sequence (P36896 whole entry): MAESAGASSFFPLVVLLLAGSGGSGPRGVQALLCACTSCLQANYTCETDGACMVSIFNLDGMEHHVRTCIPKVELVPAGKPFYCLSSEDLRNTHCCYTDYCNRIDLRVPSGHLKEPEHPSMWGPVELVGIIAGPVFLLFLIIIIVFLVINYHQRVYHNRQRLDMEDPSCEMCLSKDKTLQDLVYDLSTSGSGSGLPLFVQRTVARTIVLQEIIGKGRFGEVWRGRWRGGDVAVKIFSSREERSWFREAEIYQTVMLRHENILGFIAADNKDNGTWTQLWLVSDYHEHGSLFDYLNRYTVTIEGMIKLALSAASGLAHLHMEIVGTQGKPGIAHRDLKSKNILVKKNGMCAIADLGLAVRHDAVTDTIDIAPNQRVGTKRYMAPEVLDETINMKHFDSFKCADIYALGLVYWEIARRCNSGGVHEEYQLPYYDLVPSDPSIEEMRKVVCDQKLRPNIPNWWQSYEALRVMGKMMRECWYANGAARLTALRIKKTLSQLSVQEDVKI

For test [5], the target named is Serine/threonine-protein kinase/endoribonuclease IRE2 (Homo sapiens, UniProt Q76MJ5).
The target in test [6] is Cyclin-dependent kinase 5 (Homo sapiens, UniProt Q00535).
In test [7] the target is T4, Interleukin-1 receptor-associated kinase 4 (Homo sapiens, UniProt Q9NWZ3).
T4 sequence (Q9NWZ3 whole entry): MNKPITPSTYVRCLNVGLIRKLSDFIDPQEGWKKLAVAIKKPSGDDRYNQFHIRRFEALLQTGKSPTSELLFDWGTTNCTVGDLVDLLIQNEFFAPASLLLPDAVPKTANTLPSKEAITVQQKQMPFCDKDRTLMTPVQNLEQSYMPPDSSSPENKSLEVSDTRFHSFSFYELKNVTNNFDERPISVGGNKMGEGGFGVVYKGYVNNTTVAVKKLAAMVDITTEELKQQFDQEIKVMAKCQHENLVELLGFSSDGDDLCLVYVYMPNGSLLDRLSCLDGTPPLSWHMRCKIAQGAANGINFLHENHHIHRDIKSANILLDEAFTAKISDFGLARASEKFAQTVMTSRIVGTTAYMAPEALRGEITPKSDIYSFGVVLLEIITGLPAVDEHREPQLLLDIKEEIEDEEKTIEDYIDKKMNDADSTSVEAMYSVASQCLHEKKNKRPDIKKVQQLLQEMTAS

The next test deals with Myosin-14 (Homo sapiens, UniProt Q7Z406).
The target of test [8] is Mitogen-activated protein kinase 10 (Homo sapiens, UniProt P53779).
Note: in the data inactive means no Kd found up to 30 µM.

Chain of Myosin-14 (Q7Z406 whole entry): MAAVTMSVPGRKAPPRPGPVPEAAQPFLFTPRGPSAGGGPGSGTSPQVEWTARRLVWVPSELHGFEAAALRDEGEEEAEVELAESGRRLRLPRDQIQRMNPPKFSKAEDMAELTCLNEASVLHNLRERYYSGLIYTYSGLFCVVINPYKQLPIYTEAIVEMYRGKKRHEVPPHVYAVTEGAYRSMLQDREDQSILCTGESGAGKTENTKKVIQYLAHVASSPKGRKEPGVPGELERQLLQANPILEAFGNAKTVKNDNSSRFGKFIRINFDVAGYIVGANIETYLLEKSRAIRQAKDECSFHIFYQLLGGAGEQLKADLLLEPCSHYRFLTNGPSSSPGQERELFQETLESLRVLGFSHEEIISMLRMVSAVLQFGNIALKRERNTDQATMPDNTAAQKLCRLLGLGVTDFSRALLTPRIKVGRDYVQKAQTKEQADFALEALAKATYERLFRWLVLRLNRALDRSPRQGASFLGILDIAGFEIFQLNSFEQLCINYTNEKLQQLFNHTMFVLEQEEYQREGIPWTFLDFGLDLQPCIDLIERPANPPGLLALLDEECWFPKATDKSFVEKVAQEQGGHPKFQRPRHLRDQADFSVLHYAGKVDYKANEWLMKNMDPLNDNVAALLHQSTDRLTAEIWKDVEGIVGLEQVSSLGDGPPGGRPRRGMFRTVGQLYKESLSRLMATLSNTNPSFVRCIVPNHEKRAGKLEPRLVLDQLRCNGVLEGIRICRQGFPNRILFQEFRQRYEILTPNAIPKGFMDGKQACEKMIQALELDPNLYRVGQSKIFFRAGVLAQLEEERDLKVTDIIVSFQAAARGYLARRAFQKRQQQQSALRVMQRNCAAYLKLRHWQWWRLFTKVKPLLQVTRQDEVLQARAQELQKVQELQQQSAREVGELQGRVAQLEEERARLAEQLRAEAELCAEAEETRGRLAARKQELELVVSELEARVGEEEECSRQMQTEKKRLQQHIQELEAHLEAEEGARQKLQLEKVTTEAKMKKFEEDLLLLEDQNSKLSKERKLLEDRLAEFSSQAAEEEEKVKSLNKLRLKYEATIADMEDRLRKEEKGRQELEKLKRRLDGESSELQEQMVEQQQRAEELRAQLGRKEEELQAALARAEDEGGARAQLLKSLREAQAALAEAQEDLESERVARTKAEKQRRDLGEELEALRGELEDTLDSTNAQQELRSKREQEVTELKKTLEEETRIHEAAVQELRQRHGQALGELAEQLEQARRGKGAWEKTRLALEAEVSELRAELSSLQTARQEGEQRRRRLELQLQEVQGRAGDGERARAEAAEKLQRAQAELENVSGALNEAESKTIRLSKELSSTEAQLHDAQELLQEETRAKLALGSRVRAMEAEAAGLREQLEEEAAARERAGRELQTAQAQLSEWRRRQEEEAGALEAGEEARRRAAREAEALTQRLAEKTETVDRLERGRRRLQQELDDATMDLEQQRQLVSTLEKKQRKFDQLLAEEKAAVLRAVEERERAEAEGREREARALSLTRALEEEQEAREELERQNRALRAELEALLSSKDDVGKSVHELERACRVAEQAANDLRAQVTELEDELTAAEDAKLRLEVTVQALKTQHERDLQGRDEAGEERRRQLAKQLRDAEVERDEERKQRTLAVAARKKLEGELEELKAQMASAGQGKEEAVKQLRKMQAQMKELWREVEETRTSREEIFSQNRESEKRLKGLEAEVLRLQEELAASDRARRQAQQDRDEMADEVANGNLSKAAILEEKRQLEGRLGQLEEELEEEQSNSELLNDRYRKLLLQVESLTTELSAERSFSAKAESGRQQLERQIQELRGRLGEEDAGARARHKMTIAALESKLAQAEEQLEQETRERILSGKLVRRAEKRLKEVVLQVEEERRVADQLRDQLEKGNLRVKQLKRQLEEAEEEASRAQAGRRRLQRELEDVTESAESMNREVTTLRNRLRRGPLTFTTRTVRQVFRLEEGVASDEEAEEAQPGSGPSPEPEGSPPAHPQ
Chain of Mitogen-activated protein kinase 9 (P45984 whole entry): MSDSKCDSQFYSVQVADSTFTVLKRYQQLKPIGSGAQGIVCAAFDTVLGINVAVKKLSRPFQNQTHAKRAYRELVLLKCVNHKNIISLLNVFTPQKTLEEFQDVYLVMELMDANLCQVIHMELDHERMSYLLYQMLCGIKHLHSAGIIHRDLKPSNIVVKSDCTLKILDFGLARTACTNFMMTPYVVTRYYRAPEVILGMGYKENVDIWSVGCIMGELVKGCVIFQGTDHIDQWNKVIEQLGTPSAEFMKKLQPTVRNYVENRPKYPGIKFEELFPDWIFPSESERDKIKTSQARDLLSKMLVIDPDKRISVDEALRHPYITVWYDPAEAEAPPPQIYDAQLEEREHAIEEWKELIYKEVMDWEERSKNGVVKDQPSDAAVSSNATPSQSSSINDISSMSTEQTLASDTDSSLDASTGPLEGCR
Chain of Mitogen-activated protein kinase 10 (P53779 whole entry): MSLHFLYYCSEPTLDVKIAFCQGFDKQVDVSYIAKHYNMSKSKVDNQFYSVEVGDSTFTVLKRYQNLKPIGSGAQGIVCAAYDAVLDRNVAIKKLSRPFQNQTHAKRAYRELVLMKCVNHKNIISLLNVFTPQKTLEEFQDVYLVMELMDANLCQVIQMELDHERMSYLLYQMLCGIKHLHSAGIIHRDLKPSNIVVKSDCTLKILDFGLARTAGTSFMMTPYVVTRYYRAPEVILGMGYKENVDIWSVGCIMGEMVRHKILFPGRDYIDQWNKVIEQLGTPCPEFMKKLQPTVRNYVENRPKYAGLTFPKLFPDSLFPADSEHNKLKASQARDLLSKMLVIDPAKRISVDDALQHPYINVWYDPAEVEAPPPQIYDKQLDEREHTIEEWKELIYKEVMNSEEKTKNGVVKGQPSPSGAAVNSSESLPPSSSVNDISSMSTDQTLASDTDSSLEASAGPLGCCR
Chain of Cyclin-dependent kinase 5 (Q00535 whole entry): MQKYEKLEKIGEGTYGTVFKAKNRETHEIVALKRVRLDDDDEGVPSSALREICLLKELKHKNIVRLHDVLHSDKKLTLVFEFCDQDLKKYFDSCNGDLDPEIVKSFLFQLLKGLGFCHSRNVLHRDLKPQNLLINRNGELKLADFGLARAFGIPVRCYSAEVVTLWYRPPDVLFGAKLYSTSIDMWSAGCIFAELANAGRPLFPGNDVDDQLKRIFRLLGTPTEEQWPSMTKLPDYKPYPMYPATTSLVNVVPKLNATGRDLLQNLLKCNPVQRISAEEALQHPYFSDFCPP
Chain of Serine/threonine-protein kinase/endoribonuclease IRE2 (Q76MJ5 whole entry): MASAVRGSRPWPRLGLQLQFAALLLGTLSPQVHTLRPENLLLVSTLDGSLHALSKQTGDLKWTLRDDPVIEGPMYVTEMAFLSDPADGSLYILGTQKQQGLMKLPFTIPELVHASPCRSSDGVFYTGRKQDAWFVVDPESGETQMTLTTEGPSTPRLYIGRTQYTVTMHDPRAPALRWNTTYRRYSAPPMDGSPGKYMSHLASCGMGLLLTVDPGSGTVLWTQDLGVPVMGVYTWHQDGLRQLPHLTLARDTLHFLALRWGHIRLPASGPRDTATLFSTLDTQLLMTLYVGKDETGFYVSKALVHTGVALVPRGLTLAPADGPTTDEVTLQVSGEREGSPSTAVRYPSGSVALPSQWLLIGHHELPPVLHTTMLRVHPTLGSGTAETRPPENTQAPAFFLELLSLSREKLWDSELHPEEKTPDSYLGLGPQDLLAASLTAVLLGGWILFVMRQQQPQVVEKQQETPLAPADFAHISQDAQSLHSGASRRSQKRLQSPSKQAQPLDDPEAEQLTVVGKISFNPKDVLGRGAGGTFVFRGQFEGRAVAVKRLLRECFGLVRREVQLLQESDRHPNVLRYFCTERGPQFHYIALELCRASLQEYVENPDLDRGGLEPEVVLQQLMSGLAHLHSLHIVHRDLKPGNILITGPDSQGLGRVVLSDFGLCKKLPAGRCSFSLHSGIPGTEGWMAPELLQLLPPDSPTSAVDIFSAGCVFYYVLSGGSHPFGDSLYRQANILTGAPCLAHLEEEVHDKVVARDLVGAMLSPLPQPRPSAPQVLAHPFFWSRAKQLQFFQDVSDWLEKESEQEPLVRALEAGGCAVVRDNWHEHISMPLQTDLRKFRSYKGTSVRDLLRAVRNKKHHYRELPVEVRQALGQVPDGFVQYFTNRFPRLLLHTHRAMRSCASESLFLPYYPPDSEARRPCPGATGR
Chain of Serine/threonine-protein kinase N2 (Q16513 whole entry): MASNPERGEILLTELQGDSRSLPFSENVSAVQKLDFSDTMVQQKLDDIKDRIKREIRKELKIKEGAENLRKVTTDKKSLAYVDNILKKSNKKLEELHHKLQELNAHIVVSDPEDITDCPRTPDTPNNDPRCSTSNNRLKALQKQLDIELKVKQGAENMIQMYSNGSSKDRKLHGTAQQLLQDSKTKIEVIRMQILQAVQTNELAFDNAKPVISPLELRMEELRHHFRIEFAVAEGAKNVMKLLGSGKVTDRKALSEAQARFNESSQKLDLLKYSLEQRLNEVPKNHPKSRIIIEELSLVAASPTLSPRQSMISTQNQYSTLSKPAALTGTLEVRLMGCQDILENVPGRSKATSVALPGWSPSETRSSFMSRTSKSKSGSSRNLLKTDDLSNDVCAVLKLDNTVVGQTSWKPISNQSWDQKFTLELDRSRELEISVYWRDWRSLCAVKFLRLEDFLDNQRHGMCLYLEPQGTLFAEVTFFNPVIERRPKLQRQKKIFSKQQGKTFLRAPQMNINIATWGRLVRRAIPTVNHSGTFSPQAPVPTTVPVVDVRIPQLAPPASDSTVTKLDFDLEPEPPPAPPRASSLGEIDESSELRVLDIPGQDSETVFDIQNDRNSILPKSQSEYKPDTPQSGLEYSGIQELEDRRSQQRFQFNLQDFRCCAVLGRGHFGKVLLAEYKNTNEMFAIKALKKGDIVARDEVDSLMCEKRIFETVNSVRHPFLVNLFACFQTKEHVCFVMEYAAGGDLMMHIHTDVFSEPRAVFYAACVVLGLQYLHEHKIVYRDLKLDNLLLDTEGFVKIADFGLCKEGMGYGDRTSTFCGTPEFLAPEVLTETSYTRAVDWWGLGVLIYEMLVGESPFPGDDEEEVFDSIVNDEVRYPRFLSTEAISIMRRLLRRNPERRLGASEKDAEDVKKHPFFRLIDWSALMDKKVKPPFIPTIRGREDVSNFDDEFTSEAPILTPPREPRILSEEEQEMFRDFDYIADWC

Turning to `O=c1[nH]c([C@@H]2CCCN2)nc2c1oc1ccc(Cl)cc12`, the Kd (in test [1]; in test [2]; in test [3]; in test [4]; on Activin receptor type-1B; in [5]) was > 30 µM (inactive) throughout. Also, the Kd (in test [6]; in test [7]; on Myosin-14; in test [8]) was > 30 µM (inactive) each time.
Consider `COc1ccc(-c2ccc3ncc4c(c3c2)n(-c2ccc(N3CCNCC3)c(C(F)(F)F)c2)c(=O)n4C)cn1` [BGT-226 FREE BASE], for which the Kd (in test [1]; in test [2]; in test [3]; in test [4]; on Activin receptor type-1B; in test [5]) was > 30 µM (inactive) each time. The Kd (in test [6]; in test [7]; on Myosin-14; in test [8]) was > 30 µM (inactive) in each case.
For `Cc1c(Cn2c(C)nc3c(C(=O)O)cc(N4CCOCC4)cc32)cccc1C(F)(F)F` [GSK-2636771], the Kd (in test [1]; in test [2]; in [3]; in test [4]; at Activin receptor type-1B; in test [5]) was > 30 µM (inactive) in each case. Also, the Kd (in test [6]; in test [7]; at Myosin-14; in test [8]) was > 30 µM (inactive) in each case.
`Cn1cc(-c2[nH]c3cc(NC(=O)[C@H](N)C4CCCCC4)cc4c3c2C=NNC4=O)cn1`: the Kd (in test [1]; in test [2]; in test [3]; in test [4]; at Activin receptor type-1B; in test [5]) was > 30 µM (inactive) throughout. The Kd was > 30 µM (inactive) in [6], 2.61 µM (active) in [7], > 30 µM (inactive) at Myosin-14 and > 30 µM (inactive) in test [8].
With `C[C@@H]1COC(Nc2ccc3ncnc(Nc4ccc(OCc5nccs5)c(Cl)c4)c3c2)=N1` [VARLITINIB], the Kd (in [1]; in [2]; in test [3]; in [4]; at Activin receptor type-1B; in [5]) was > 30 µM (inactive) in each case. The Kd (in test [6]; in test [7]; on Myosin-14; in [8]) was > 30 µM (inactive) each time.
For `CCc1cc2c(cc1N1CCC(N3CCOCC3)CC1)C(C)(C)c1[nH]c3cc(C#N)ccc3c1C2=O` [ALECTINIB], the Kd in test [1] was > 30 µM (inactive); in test [2], > 30 µM (inactive); in [3], > 30 µM (inactive); in test [4], 0.271 µM; at Activin receptor type-1B it was > 30 µM (inactive); in test [5], > 30 µM (inactive). Moreover, the Kd (in test [6]; in test [7]; at Myosin-14; in test [8]) was > 30 µM (inactive) in each case.
As to `C#Cc1cccc(Nc2ncnc3cc4c(cc23)OCCOCCOCCO4)c1` [ICOTINIB], the Kd (in test [1]; in [2]; in [3]; in test [4]; at Activin receptor type-1B; in test [5]) was > 30 µM (inactive) each time. The Kd (in test [6]; in test [7]; on Myosin-14; in [8]) was > 30 µM (inactive) in each case.
`Cn1c(=O)c(F)c(Nc2ccc(I)cc2F)c2c(=O)n(C[C@@H](O)CO)cnc21` [TAK-733]: the Kd (in [1]; in test [2]; in [3]; in [4]; at Activin receptor type-1B; in test [5]) was > 30 µM (inactive) in each case. For the same compound, the Kd (in [6]; in [7]; on Myosin-14; in test [8]) was > 30 µM (inactive) each time.
With `COc1cc2ncnc3c2cc1OCCCCCN(C)Cc1ccc(Br)cc1N3` [JNJ-26483327], the Kd (in [1]; in [2]; in test [3]; in [4]; on Activin receptor type-1B; in test [5]) was > 30 µM (inactive) in each case. Also, the Kd (in [6]; in test [7]; at Myosin-14; in test [8]) was > 30 µM (inactive) in each case.
For the compound `COc1ccc2c(OCc3nnc4ccc(-c5ccccc5)nn34)ccnc2c1` [AMG-208], the Kd (in [1]; in test [2]; in [3]; in test [4]; on Activin receptor type-1B; in test [5]) was > 30 µM (inactive) throughout. Further, the Kd (in test [6]; in test [7]; at Myosin-14; in test [8]) was > 30 µM (inactive) throughout.
With `Cc1cc(-c2cc(OC(=O)c3ccccc3)ccc2Cl)cc2nnc(Nc3ccc(OCCN4CCCC4)cc3)nc12` [TG100-801], the Kd (in test [1]; in [2]; in [3]; in test [4]; at Activin receptor type-1B; in test [5]) was > 30 µM (inactive) in each case. The Kd (in test [6]; in test [7]; at Myosin-14; in test [8]) was > 30 µM (inactive) in each case.
